Measured values as given in patent US6596773B2, “Phenyl substituted pyridine and benzene derivatives” (Hoffmann-La Roche Inc., priority 1999, dated 2003).

biological target: T1, human NK1 receptor (Homo sapiens, UniProt P25103); experiment: NK1 receptor binding assay, displacement of [3H]substance P; conditions: human NK1 receptors in CHO cells (Semliki virus expression system), [3H]substance P 0.6 nM, 60 min at room temperature; read-out: affinity to the NK-1 receptor, given as pKi (converted)
T1 construct: expressed in transfected cells; host or cells: CHO cells infected using the Semliki virus expression system; membrane suspension
Method: The affinity of test compounds for the NK1 receptor was evaluated at human NK1 receptors in CHO cells infected with the human NK1 receptor (using the Semliki virus expression system) and radiolabelled with [3H]substance P (final concentration 0.6 nM). Binding assays were performed in HEPES buffer (50 mM, pH 7.4) containing BSA (0.04%) leupeptin ([…]), MnCl2 (3 mM) and phosphoramidon ([…]). Binding assays consisted of […] of membrane suspension (1.25×10^5 cells/assay tube), 0.125 ml of buffer of displacing agent and […] of [3H]substance P. Displacement curves were determined with at least seven concentrations of the compound. The assay tubes were incubated for 60 min at room temperature after which time the tube contents were rapidly filtered under vacuum through GF/C filters presoaked for 60 min with PEI (0.3%) with 2×2 ml washed of HEPES buffer (50 mM, pH 7.4). The radioactivity retained on the filters was measured by scintillation counting. All assays were performed in triplicate in at least 2 separate experiments.

T1 sequence (P25103 whole entry): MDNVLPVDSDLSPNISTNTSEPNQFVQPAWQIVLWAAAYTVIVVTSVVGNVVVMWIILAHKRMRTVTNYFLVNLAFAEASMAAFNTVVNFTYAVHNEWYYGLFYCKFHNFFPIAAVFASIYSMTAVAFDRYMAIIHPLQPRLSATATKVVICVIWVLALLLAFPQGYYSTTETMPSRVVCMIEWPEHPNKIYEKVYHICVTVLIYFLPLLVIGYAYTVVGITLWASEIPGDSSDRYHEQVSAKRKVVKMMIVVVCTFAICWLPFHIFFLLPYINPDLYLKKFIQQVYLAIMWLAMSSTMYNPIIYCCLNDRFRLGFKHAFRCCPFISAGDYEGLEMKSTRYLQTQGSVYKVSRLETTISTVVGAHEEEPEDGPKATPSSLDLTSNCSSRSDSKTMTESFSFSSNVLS

| Ki [nM] | Structure (SMILES) |
| --- | --- |
| 3.8 | CN1CCN(c2cc(Oc3ccccc3Cl)c(C(=O)N(C)Cc3cc(C(F)(F)F)cc(C(F)(F)F)c3)cn2)CC1 [Example 30, N-(3,5-Bis-trifluoromethyl-benzyl)-4-(2-chloro-phenoxy)-N-methyl-6-(4-methyl-piperazin-1-yl)-nicotinamide] |
| 2.75 | Cc1ccccc1Oc1cc(N2CCOCC2)ncc1C(=O)N(C)Cc1cc(C(F)(F)F)cc(C(F)(F)F)c1 [Example 31, N-(3,5-Bis-trifluoromethyl-benzyl)-N-methyl-6-morpholin-4-yl-4-o-tolyloxy-nicotinamide] |
| 1.74 | CN(Cc1cc(C(F)(F)F)cc(C(F)(F)F)c1)C(=O)c1cnc(N2CCOCC2)cc1Oc1ccccc1Cl [Example 29, N-(3,5-Bis-trifluoromethyl-benzyl)-4-(2-chloro-phenoxy)-N-methyl-6-morpholin-4-yl-nicotinamide] |
| 13.8 | CN(Cc1cc(C(F)(F)F)cc(C(F)(F)F)c1)C(=O)c1cnc(N2CCOCC2)cc1Oc1ccccc1 [Example 28, N-(3,5-Bis-trifluoromethyl-benzyl)-N-methyl-6-morpholin-4-yl-4-phenoxy-nicotinamide] |

test system: not given; experiment: not given; conditions: not given

| melting point | Structure (SMILES) |
| --- | --- |
| 105 °C (dec.) | CN1CCN(c2cc(C(=O)c3ccccc3)c(C(=O)N(C)Cc3cc(C(F)(F)F)cc(C(F)(F)F)c3)cn2)CC1.Cl |
| 145 °C (dec.) | CN1CCN(c2cc(C(=O)c3ccccc3Cl)c(C(=O)N(C)Cc3cc(C(F)(F)F)cc(C(F)(F)F)c3)cn2)CC1.Cl |
| 89 to 91 °C | CN(C(=O)C(C)(C)c1cc(C(F)(F)F)cc(C(F)(F)F)c1)c1ccc(Cl)cc1C(=O)c1ccccc1 [Example 2, N-(2-Benzoyl-4-chloro-phenyl)-2-(3,5-bis-trifluoromethyl-phenyl)-N-methyl-isobutyramide] |
